Data published in patent US5569471A, “Medicine for the treatment of tumor” (priority 1993, dated 1996).
“Also recorded” adds a separate entry of the source.

How the values were obtained:
[1] = system: human myeloblastic leukemia cells (K-562); assay: Test for confirming the effect of enhancing antitumor activity by a simultaneous dosage, K-562 cells; format: cell-based; conditions: 4-piperidino-piperidine 2.5 μg/ml simultaneously; drug doses of Table 3; FIG. 5
Description: (§1) The numbers of the lethal cells were counted in cases where 4-piperidino-piperidine (2.5 μg/ml) and each of the ten kinds of the antitumor drugs listed in Table 3 were simultaneously dosed (in small amounts and large amounts for each drug), and where the ten kinds of the antitumor drugs were independently and singly dosed (in small amounts and large amounts for each drug).
(§2) The procedure of Example 9 was repeated by using human myeloblastic leukemia cells (K-562) in place of the T-ALL cells.

T-ALL cells [2] = assay: Test for confirming the effect of enhancing antitumor activity by a simultaneous dosage, T-ALL cells; format: cell-based, human; conditions: 4-piperidino-piperidine 2.5 μg/ml simultaneously, FIG. 4
Description: as §1, §2

T-ALL cells [3] = assay: Test for confirming the effect of enhancing antitumor activity by successive dosage; format: cell-based, human; conditions: FIG. 3
Description: The tumor cell killing effect was investigated by successively administering 4-piperidino-piperidine and an antitumor drug to T-ALL cells.
First, T-ALL cells were cultured in a plurality of culture media containing 4-piperidino-piperidine at different concentrations (2.5, 12.5, 25 and 50 μg/ml) for 6 days. […] The results are shown in FIG. 3, which employes a relative expression where the number of lethal cells in the standard cell groups was taken as 100% (shown by a horizontal perforated line). The numbers 1, 2, 3 and 4 given for each drug indicate that the concentration of 4-piperidino-piperidine used for the culture is 2.5, 12.5, 25 and 50 μg/ml, respectively.

[4] = system: cisplatin-resistant human myeloid leukemia cells (K-562); assay: Test for confirming the resistance dissolving effect, cisplatin-resistant cells; format: cell-based; conditions: FIG. 2; for cell killing effect, single dose: 4-piperidino-piperidine 2.5 μg/ml alone, cisplatin 1 alone, vs control
Source text: As drug-fast cells, two kinds of human myeloid leukemia cells (K-562) which had acquired drug resistance against adriamycin (ADR) and cisplatin were used (see Kaoru MIURA, et al., "NK and LAK cell sensitivity and HLA expression" 51st Conference of Japan Cancer Association, page 252, 1992; and Nobutaka IMAIZUMI, Yoichiro KUSUKI, Chie KAWACHI, et al., "Establishing adriamycin-resistant strains and review on the mechanism of resistance", Oncologoa, 21, 89-94, 1988). In the test, adriamycin (ADR), cisplatin, and 4-piperidino-piperidine were dosed singly or in combination against the two kinds of the drug-fast cells, and the number of the lethal cells were counted.

[5] = system: T-cells derived from human acute leukemia (RPMI-8402, T-ALL cells); assay: Test for confirming the inhibitory effect on tumor cell propagation (6-day culture, counting of lethal and propagated cells); format: cell-based; conditions: 2.5, 12.5, 25, 50, 80 and 100 μg/ml, FIG. 1
Description: To samples of T-cells derived from human acute leukemia (RPMI-8402, T-ALL cells, see Minowada, J. and Moore, G. E., In Comparative Leukemia Research, Eds. Ito, Y. and Dutcher, R. M., Univ. Tokyo Press, Tokyo, pp. 251-261, 1975), 4-piperidino-piperidine (4-PP) in various concentrations was added (0, 2.5, 12.5, 25, 50, 80 and 100 μg/ml). After a 6-day culture, lethal cells and propagated cells were counted.

Toxicity test = conditions: in vivo; species and route not given
Description: The LD50 value of 4-piperidino-piperidine is about 200 to 300 mg/kg. Therefore, ordinary dose will not cause any risk.

[6] = both drug concentrations (DNR 0.01/0.05, ACR 0.05/0.1, 5-FU 5/10 μg/ml)
[7] = 4-piperidino-piperidine precedently dosed at 12.5, 25 and 50 μg/ml, DNR 0.05, 5-FU 10 μg/ml
[8] = 4-piperidino-piperidine precedently dosed, all concentration groups (2.5, 12.5, 25 and 50 μg/ml), ACR 0.05, MTX 0.01 μg/ml
[9] = in the concentration of 0.05 μg/ml

CC[C@]1(O)C[C@H]2CN(CCc3c([nH]c4ccccc34)[C@@](C(=O)OC)(c3cc4c(cc3OC)N(C=O)[C@H]3[C@@](O)(C(=O)OC)[C@H](OC(C)=O)[C@]5(CC)C=CCN6CC[C@]43[C@@H]65)C2)C1 [VCR]
enhancement of antitumor activity by combined use with 4-piperidino-piperidine [1]: enhanced

COc1cccc2c1C(=O)c1c(O)c3c(c(O)c1C2=O)C[C@@](O)(C(C)=O)C[C@@H]3O[C@H]1C[C@H](N)[C@H](O)[C@H](C)O1 [DNR]
enhancement of antitumor activity by combined use with 4-piperidino-piperidine (T-ALL cells [2]; [6]): enhanced | enhancement of antitumor activity by combined use with 4-piperidino-piperidine [1]: enhanced | enhancement of antitumor drug effect (lethal cells relative to standard cells) (T-ALL cells [3]; [7]): enhanced effects

O=C1c2c(O)ccc(O)c2C(=O)c2c(NCCNCCO)ccc(NCCNCCO)c21 [Mitoxantrone]
enhancement of antitumor activity by combined use with 4-piperidino-piperidine [1]: enhanced | enhancement of antitumor drug effect (lethal cells relative to standard cells) (T-ALL cells [3]; 4-piperidino-piperidine precedently dosed at 2.5 and 50 μg/ml, mitoxantrone 0.05 μg/ml): enhanced effects

COc1cc([C@@H]2c3cc4c(cc3[C@@H](O[C@@H]3O[C@@H]5CO[C@@H](C)O[C@H]5[C@H](O)[C@H]3O)[C@H]3COC(=O)[C@H]23)OCO4)cc(OC)c1O [etoposide]
enhancement of antitumor activity by combined use with 4-piperidino-piperidine [1]: enhanced

N.N.[Cl][Pt][Cl] [cisplatin]
enhancement of antitumor activity by combined use with 4-piperidino-piperidine [1]: enhanced | cell killing effect, single dose [4]: almost the same cell killing effect as that of the control group

CCC1(O)CC(OC2CC(N(C)C)C(OC3CC(O)C(OC4CCC(=O)C(C)O4)C(C)O3)C(C)O2)c2c(cc3c(c2O)C(=O)c2c(O)cccc2C3=O)C1C(=O)OC (stereo not shown) [ACR]
enhancement of antitumor activity by combined use with 4-piperidino-piperidine (T-ALL cells [2]; [6]): enhanced | enhancement of antitumor drug effect (lethal cells relative to standard cells) (T-ALL cells [3]; [8]): enhanced effects

CC[C@]1(O)C[C@@H]2CN(CCc3c([nH]c4ccccc34)[C@@](C(=O)OC)(c3cc4c(cc3OC)N(C)[C@H]3[C@@](O)(C(N)=O)[C@H](O)[C@]5(CC)C=CCN6CC[C@]43[C@@H]65)C2)C1 [VDS]
enhancement of antitumor activity by combined use with 4-piperidino-piperidine (T-ALL cells [2]; [9]): enhanced | enhancement of antitumor activity by combined use with 4-piperidino-piperidine [1]: enhanced

CN(Cc1cnc2nc(N)nc(N)c2n1)c1ccc(C(=O)N[C@@H](CCC(=O)O)C(=O)O)cc1 [MTX]
enhancement of antitumor activity by combined use with 4-piperidino-piperidine [1]: enhanced | enhancement of antitumor drug effect (lethal cells relative to standard cells) (T-ALL cells [3]; [8]): enhanced effects

CCc1c2c(nc3ccc(OC(=O)N4CCC(N5CCCCC5)CC4)cc13)-c1cc3c(c(=O)n1C2)COC(=O)[C@]3(O)CC [CPT-11, 7-Ethyl-10-piperidino-piperidinocarboxycamptothecin]
enhancement of antitumor drug effect (lethal cells relative to standard cells) (T-ALL cells [3]; 4-piperidino-piperidine precedently dosed at 25 and 50 μg/ml, CPT-11 10 μg/ml): enhanced

COc1cccc2c1C(=O)c1c(O)c3c(c(O)c1C2=O)C[C@@](O)(C(=O)CO)C[C@@H]3O[C@H]1C[C@H](N)[C@H](O)[C@H](C)O1 [ADR]
enhancement of antitumor activity by combined use with 4-piperidino-piperidine (T-ALL cells [2]; [9]): enhanced | enhancement of antitumor activity by combined use with 4-piperidino-piperidine [1]: enhanced

O=c1[nH]cc(F)c(=O)[nH]1 [5-FU, 5-Fluorouracil]
enhancement of antitumor activity by combined use with 4-piperidino-piperidine (T-ALL cells [2]; [6]): enhanced | enhancement of antitumor drug effect (lethal cells relative to standard cells) (T-ALL cells [3]; [7]): enhanced effects

C1CCN(C2CCNCC2)CC1 [4-piperidino-piperidine]
number of propagated cells [5]: decreased in a dose-dependent manner | number of lethal cells (tumor cell killing effect) ([5]; vs control): does not have tumor cell killing effect per se; also recorded: not significantly different from the count of the control group | cell killing effect, single dose [4]: almost the same cell killing effect as that of the control group | cell killing effect, simultaneous dose (resistance dissolving) ([4]; cisplatin and 4-piperidino-piperidine simultaneously dosed, compared with each dosed singly): significantly enhanced | LD50 (Toxicity test): 200 to 300 mg/kg
